Source: ChEMBL document CHEMBL1201862, “PubChem BioAssay data set” (2004)
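Briefly, cells in 96-well plates were exposed to five compound concentrations for 48 h, and endpoints were estimated by linear interpolation. GI50: concentration for 50% inhibition of growth.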 Active and inactive are the calls of the source. No stated cut-off is given here; in the data, active = GI50 up to about 1.1 µM and inactive = higher.

Key:
Test in all cases: NCI tumour cell line growth inhibition, 48 h
786-0 = test system: 786-0
A498 = test system: A498
HCC 2998 = test system: HCC 2998
HL-60 = test system: HL-60
HOP-62 = test system: HOP-62
Hs-578T = test system: Hs-578T
MDA-MB-435 = test system: MDA-MB-435
MDA-N = test system: MDA-N
NCI-H460 = test system: NCI-H460
NCI-H522 = test system: NCI-H522
PC-3 = test system: PC-3
SN12C = test system: SN12C
SNB-75 = test system: SNB-75
T47D = test system: T47D

CC/C=C/C[C@H](O[Si](C)(C)C(C)(C)C)[C@H]1C[C@H]2O[C@H]([C@@H](O)C#C[Si](C)(C)C)C[C@H]2O1
GI50 (786-0): 14.7 µM (inactive)
GI50 (A498): 17.9 µM (inactive)
GI50 (HCC 2998): 15.9 µM (inactive)
GI50 (HL-60): 3.84 µM (inactive)
GI50 (HOP-62): 16.1 µM (inactive)
GI50 (Hs-578T): 15.3 µM (inactive)
GI50 (MDA-MB-435): 12.3 µM (inactive)
GI50 (MDA-N): 12.2 µM (inactive)
GI50 (NCI-H460): 15.8 µM (inactive)
GI50 (NCI-H522): 3.64 µM (inactive)
GI50 (PC-3): 12.9 µM (inactive)
GI50 (SN12C): 5.36 µM (inactive)
GI50 (SNB-75): 16.3 µM (inactive)
GI50 (T47D): 7.55 µM (inactive)

COc1ccc2cc(CN3CCC(C4CCN(Cc5ccc6cc(OC)ccc6c5)CC4)CC3)ccc2c1
GI50 (786-0): 2.06 µM (inactive)
GI50 (A498): 8.43 µM (inactive)
GI50 (HCC 2998): 0.18 µM (active)
GI50 (HL-60): 2.33 µM (inactive)
GI50 (HOP-62): 6.43 µM (inactive)
GI50 (Hs-578T): 4.61 µM (inactive)
GI50 (MDA-MB-435): 1.69 µM (inactive)
GI50 (MDA-N): 2.04 µM (inactive)
GI50 (NCI-H460): 2.17 µM (inactive)
GI50 (NCI-H522): 2.3 µM (inactive)
GI50 (PC-3): 15.8 µM (inactive)
GI50 (SN12C): 8.95 µM (inactive)
GI50 (SNB-75): 4.45 µM (inactive)
GI50 (T47D): 1.93 µM (inactive)

COc1cc([C@@H]2c3cc4c(cc3[C@@H](Nc3ccc(Cl)cc3C(=O)c3ccccc3Cl)[C@H]3COC(=O)[C@H]23)OCO4)cc(OC)c1OC
GI50 (786-0): 0.261 µM (active)
GI50 (A498): 0.0989 µM (active)
GI50 (HCC 2998): 0.373 µM (active)
GI50 (HL-60): 0.0695 µM (active)
GI50 (HOP-62): 0.443 µM (active)
GI50 (Hs-578T): 0.0241 µM (active)
GI50 (MDA-MB-435): 0.0661 µM (active)
GI50 (MDA-N): 0.0873 µM (active)
GI50 (NCI-H460): 0.146 µM (active)
GI50 (NCI-H522): 0.0685 µM (active)
GI50 (PC-3): 0.16 µM (active)
GI50 (SN12C): 0.371 µM (active)
GI50 (SNB-75): 0.188 µM (active)
GI50 (T47D): > 100 µM (inactive)

C/C(CC(O)(C(F)(F)F)C(F)(F)F)=N/Nc1ccc([N+](=O)[O-])cc1[N+](=O)[O-]
GI50 (786-0): 3.5 µM (inactive)
GI50 (A498): 2.39 µM (inactive)
GI50 (HCC 2998): 3.6 µM (inactive)
GI50 (HL-60): 2.94 µM (inactive)
GI50 (HOP-62): 2.99 µM (inactive)
GI50 (Hs-578T): 2.81 µM (inactive)
GI50 (MDA-MB-435): 3.15 µM (inactive)
GI50 (MDA-N): 4.46 µM (inactive)
GI50 (NCI-H460): 3.11 µM (inactive)
GI50 (NCI-H522): 2.07 µM (inactive)
GI50 (PC-3): 2.78 µM (inactive)
GI50 (SN12C): 3.7 µM (inactive)
GI50 (SNB-75): 2.69 µM (inactive)
GI50 (T47D): 1.08 µM (active)

C=C1N(C)c2ccc(S(=O)(=O)c3ccc4c(c3)C(C)(C)C(=C)N4C)cc2C1(C)C
GI50 (786-0): 58.5 µM (inactive)
GI50 (A498): 37.2 µM (inactive)
GI50 (HCC 2998): 34.5 µM (inactive)
GI50 (HL-60): 27.3 µM (inactive)
GI50 (HOP-62): 56.1 µM (inactive)
GI50 (Hs-578T): 24.3 µM (inactive)
GI50 (MDA-MB-435): 30.8 µM (inactive)
GI50 (MDA-N): 39 µM (inactive)
GI50 (NCI-H460): 49.8 µM (inactive)
GI50 (NCI-H522): 20.7 µM (inactive)
GI50 (PC-3): 35.5 µM (inactive)
GI50 (SN12C): 42.2 µM (inactive)
GI50 (SNB-75): 16.3 µM (inactive)
GI50 (T47D): 24.2 µM (inactive)

CC(CO)(CO)N1C(=O)C2C3C=CC(C3)C2C1=O (stereo not drawn)
GI50 (786-0): > 100 µM (inactive)
GI50 (A498): > 100 µM (inactive)
GI50 (HCC 2998): > 100 µM (inactive)
GI50 (HL-60): > 100 µM (inactive)
GI50 (HOP-62): > 100 µM (inactive)
GI50 (Hs-578T): > 100 µM (inactive)
GI50 (MDA-MB-435): > 100 µM (inactive)
GI50 (MDA-N): > 100 µM (inactive)
GI50 (NCI-H460): > 100 µM (inactive)
GI50 (NCI-H522): > 100 µM (inactive)
GI50 (PC-3): > 100 µM (inactive)
GI50 (SN12C): > 100 µM (inactive)
GI50 (SNB-75): > 100 µM (inactive)
GI50 (T47D): > 100 µM (inactive)

CCOC(=O)N/N=C(/N)Cc1ccccc1
GI50 (786-0): > 100 µM (inactive)
GI50 (A498): > 100 µM (inactive)
GI50 (HCC 2998): > 100 µM (inactive)
GI50 (HL-60): > 100 µM (inactive)
GI50 (HOP-62): > 100 µM (inactive)
GI50 (Hs-578T): > 100 µM (inactive)
GI50 (MDA-MB-435): > 100 µM (inactive)
GI50 (MDA-N): > 100 µM (inactive)
GI50 (NCI-H460): > 100 µM (inactive)
GI50 (NCI-H522): > 100 µM (inactive)
GI50 (PC-3): > 100 µM (inactive)
GI50 (SN12C): > 100 µM (inactive)
GI50 (SNB-75): > 100 µM (inactive)
GI50 (T47D): > 100 µM (inactive)
